Patent US12503444B2, “Compound containing benzene ring and application thereof” (WUHAN LL SCIENCE AND TECHNOLOGY DEVELOPMENT CO., LTD., priority 2019, dated 2025)
pIC50: −log10 of the molar value. Read-outs that look alike come from different tables or passages of the source.

Key:
[1] = In vitro metabolic stability, liver microsome incubation (human); assay type: in vitro ADME; conditions: human, liver microsomes; 1 mg/mL liver microsome protein, 37° C.; read-out: T1/2 in human liver microsome min
Experimental: The in vitro metabolic stability of the compounds disclosed herein was determined through incubation of liver microsomes of various species. A proper amount of test compound was added into a liver microsome reaction system (1 mg/mL liver microsome protein, 25 U/mL glucose-6 phosphate dehydrogenase, 1 mM NADP, 6 mM D-glucose 6-phosphate and 5 mM MgCl2), and then the mixture was incubated in a water bath kettle at 37° C. to start the reaction. At each time point, 100 μL of the reaction system was added into a centrifuge tube containing 400 μL of internal standard working solution (containing a 200 ng/mL solution of dexamethasone, diclofenac, tolbutamide and labetalol in acetonitrile) precooled at 0° C. so as to stop the reaction, and the mixture was then centrifuged at 10,000 g for 10 min at 4° C. The supernatant was collected for LC-MS assay so as to obtain the values of in vitro metabolic half-life of the test compounds in liver microsomes of various species.

[2] = biological target: T1, hP2X4 (human purinergic P2X receptor subtype 4) (Homo sapiens, UniProt Q99571); experiment: FLIPR assay of intracellular calcium increase induced by activation of hP2X4 expressed in HEK293 cells (agonist BZ-ATP 2.5 μM); assay type: cell-based; conditions: HEK293 cells stably expressing hP2X4, FLIPR, read-out: P2X4 IC50
T1 sequence (Q99571 1-404 isoform Q99571-2): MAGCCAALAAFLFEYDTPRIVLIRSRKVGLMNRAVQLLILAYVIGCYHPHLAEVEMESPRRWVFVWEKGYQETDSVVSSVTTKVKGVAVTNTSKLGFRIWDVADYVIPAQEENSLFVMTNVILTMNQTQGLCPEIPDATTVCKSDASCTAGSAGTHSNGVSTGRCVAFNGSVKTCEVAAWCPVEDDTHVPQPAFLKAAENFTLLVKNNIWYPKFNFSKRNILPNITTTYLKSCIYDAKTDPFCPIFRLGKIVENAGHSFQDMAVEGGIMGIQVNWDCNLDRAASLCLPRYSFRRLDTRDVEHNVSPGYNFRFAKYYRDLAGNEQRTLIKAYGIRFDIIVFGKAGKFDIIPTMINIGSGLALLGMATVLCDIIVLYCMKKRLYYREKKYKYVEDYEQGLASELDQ
Experimental: The antagonist property of the compounds disclosed herein was determined using the FLIPR (fluorescence imaging plate reader) method, wherein the compounds are inhibitors for the intracellular calcium increase induced by activation of hP2X4 (human purinergic P2X receptor subtype 4, accession No. NM_001256796.2) expressed in HEK293 cells (human renal epithelial cell line, ATCC).
HEK293 cells stably expressing hP2X4 were cultured in DMEM high glucose medium containing 10% FBS (fetal bovine serum, Biosera, FB-1058/500), 1% penicillin-streptomycin (Gibco, 15140-122) and 1 mg/mL G418 (CABIOCHE, 345810) in a cell incubator (37° C., […]). Cells at 400,000 cells/mL were seeded into a 384-well plate (10,000 cells/well) 18-24 h prior to the FLIPR experiment and then incubated overnight in a cell incubator. On the day of the experiment, the medium was discarded and the cells were washed in an FLIPR buffer (0.3 mL of probenecid (Thermo, P36400), 0.6 mL of 1 M HEPES (Invitrogen, 15630080) and 29.1 mL of HBSS (Invitrogen, 14065056) per 30 mL of the buffer). Each well was added with 20 μL of 0.5× Calcium 6 fluorescent dye (Molecular Devices, R8190) and then the cells were subjected to dye-loading incubation at 37° C. for 1.5 h. Each well was added with 10 μL of respective test compound (dissolved in DMSO at a concentration of 10 mM and serially diluted with buffer) or vehicle and the mixture was equilibrated for 30 min at room temperature. The cell plate was then placed in the FLIPR for baseline fluorescence measurements (excitation at 485 nm and emission at 525-535 nm). An agonist (BZ-ATP (Sigma, B6396) at a final concentration of 2.5 μM) or a vehicle (ultrapure water) was then added at 10 μL/well, fluorescence values were measured for 2 min at 1-second intervals, and finally the output fluorescence counts were analyzed.

Compound | half-life [1] | pIC50 ([2]; numeric values) | pIC50 ([2]; class symbols)
Cn1cc2c(S(N)(=O)=O)cc(NC(=O)Cc3ccccc3Cl)cc2n1 [Compound 3-A, 2-(2-chlorophenyl)-N-(2-methyl-4-sulfamoyl-2H-indazol-6-yl)acetamide] | 106 h | 8.31 | –
Cn1ncc2c(S(N)(=O)=O)cc(NC(=O)Cc3ccccc3Cl)cc21 [Compound 3-B, 2-(2-chlorophenyl)-N-(1-methyl-4-sulfamoyl-1H-indazol-6-yl)acetamide] | 2.58 h | 8.20 | –
CCn1ncc2c(S(N)(=O)=O)cc(NC(=O)Cc3ccccc3Cl)cc21 [Compound 4-B, (4-sulfonamide-6-N-(2-chlorophenylacetyl)-1-ethyl)-indazole] | 1.23 h | – | ≥ 8.00
CC(C)Cn1cc2c(S(N)(=O)=O)cc(NC(=O)Cc3ccccc3Cl)cc2n1 [Compound 7-A, 2-(2-chlorophenyl)-N-(2-isobutyl-4-sulfamoyl-2H-indazol-6-yl)acetamide] | 0.988 h | 8.32 | –
CC(C)C(C)n1cc2c(S(N)(=O)=O)cc(NC(=O)Cc3ccccc3Cl)cc2n1 (stereo not drawn) [Compound 10, 2-(2-chlorophenyl)-N-(2-(3-methylbutan-2-yl)-4-sulfamoyl-2H-indazol-6-yl)acetamide] | 0.408 h | – | 7.30 to 8.00
NS(=O)(=O)c1cc(NC(=O)Cc2ccccc2Cl)cc2c1cnn2CC(F)F [Compound 12-B, 2-(2-chlorophenyl)-N-(1-(2,2-difluoroethyl)-4-sulfamoyl-1H-indazol-6-yl)acetamide] | 0.301 h | 7.66 | –
C=CCn1ncc2c(S(N)(=O)=O)cc(NC(=O)Cc3ccccc3Cl)cc21 [Compound 14-B] | 1.61 h | – | ≥ 8.00
NS(=O)(=O)c1cc(NC(=O)Cc2ccccc2Cl)cc2nn(CC3CCC3)cc12 [Compound 24-A, 2-(2-chlorophenyl)-N-(2-(cyclobutylmethyl)-4-sulfamoyl-2H-indazol-6-yl)acetamide] | 1.08 h | 8.80 | –
NS(=O)(=O)c1cc(NC(=O)Cc2ccccc2Cl)cc2nn(CC3CCCC3)cc12 [Compound 31-A, 2-(2-chlorophenyl)-N-(2-(cyclopentylmethyl)-4-sulfamoyl-2H-indazol-6-yl)acetamide] | 0.748 h | – | ≥ 8.00
Nc1ccc(Cn2ncc3c(S(N)(=O)=O)cc(NC(=O)Cc4ccccc4Cl)cc32)cc1 [Compound 95A, N-(1-(4-aminobenzyl)-4-sulfamoyl-1H-indazol-6-yl)-2-(2-chlorophenyl)acetamide] | – | – | ≥ 8.00
NS(=O)(=O)c1cc(NC(=O)Cc2ccccc2Cl)cc2nn(CC3CCC(O)CC3)cc12 (stereo not drawn) [Compound 108] | – | – | 6.70 to 7.30
NS(=O)(=O)c1cc(NC(=O)Cc2ncccc2Cl)cc2nn(C(F)F)cc12 [Compound 113, 2-(3-chloropyridin-2-yl)-N-(2-(difluoromethyl)-4-sulfamoyl-2H-indazol-6-yl)acetamide] | – | – | 5.30 to 6.70
COc1ccccc1CC(=O)Nc1cc(S(N)(=O)=O)c2cn(C(F)F)nc2c1 [Compound 115, N-(2-(difluoromethyl)-4-sulfamoyl-2H-indazol-6-yl)-2-(2-methoxyphenyl)acetamide] | – | – | 5.30 to 6.70
COCCOc1cccc(CC(=O)Nc2cc(S(N)(=O)=O)c3cn(C(F)F)nc3c2)c1 [Compound 116, N-(2-(difluoromethyl)-4-sulfamoyl-2H-indazol-6-yl)-2-(3-(2-methoxyethoxy)phenyl)acetamide] | – | – | 5.30 to 6.70
NS(=O)(=O)c1cc(NC(=O)Cc2ccccc2Cl)cc2nn(CCN3CCOCC3)cc12 [Compound 118, 2-(2-chlorophenyl)-N-(2-(2-morpholinoethyl)-4-sulfamoyl-2H-indazol-6-yl)acetamide] | – | – | 5.30 to 6.70
NS(=O)(=O)c1cc(NC(=O)Cc2ccccc2Cl)cc2c1cnn2CCN1CCOCC1 [Compound 118A, 2-(2-chlorophenyl)-N-(1-(2-morpholinoethyl)-4-sulfamoyl-1H-indazol-6-yl)acetamide] | – | – | 5.30 to 6.70
CC1(N2Cc3cc(NC(=O)Cc4ccccc4Cl)cc(S(N)(=O)=O)c3C2)COC1 [Compound 130, 2-(2-chlorophenyl)-N-(2-(3-methyloxetan-3-yl)-7-sulfamoylisoindolin-5-yl)acetamide] | – | – | 5.30 to 6.70
NS(=O)(=O)c1cc(NC(=O)Cc2ccccc2Cl)cc2c1CN(C(=O)c1ccc(F)cc1)C2 [Compound 131, 2-(2-chlorophenyl)-N-(2-(4-fluorobenzoyl)-7-sulfamoylisoindolin-5-yl)acetamide] | – | – | 7.30 to 8.00
NS(=O)(=O)c1cc(NC(=O)Cc2ccccc2Cl)cc2c1CN(Cc1ccc(F)cc1)C2 [Compound 132, 2-(2-chlorophenyl)-N-(2-(4-fluorobenzyl)-7-sulfamoyliodo-5-yl)acetamide] | – | – | 5.30 to 6.70
NS(=O)(=O)c1cc(NC(=O)CC2CCCCC2O)cc2nn(C(F)F)cc12 (stereo not drawn) [Compound 136, N-(2-(difluoromethyl)-4-sulfamoyl-2H-indazol-6-yl)-2-(2-hydroxycyclohexyl)acetamide] | – | – | 5.30 to 6.70
COc1ccc(Cn2cc3c(S(C)(=N)=O)cc(NC(=O)Cc4ccccc4Cl)cc3n2)cc1 (stereo not drawn) [Compound 137, 2-(2-chlorophenyl)-N-(2-(4-methoxybenzyl)-4-(S-methylsulfonylimino)-2H-indazol-6-yl)acetamide] | – | – | 5.30 to 6.70
C[S@](=N)(=O)c1cc(NC(=O)Cc2ccccc2Cl)cc2nn(Cc3ccc(F)cc3)cc12 [Compound 138, (S)-2-(2-chlorophenyl)-N-(2-(4-fluorophenylmethyl)-4-(S-methylsulfonimidoyl)-2H-indazol-6-yl)acetamide] | – | – | 5.30 to 6.70
C[S@@](=N)(=O)c1cc(NC(=O)Cc2ccccc2Cl)cc2nn(Cc3ccc(F)cc3)cc12 [Compound 138A, (R)-2-(2-chlorophenyl)-N-(2-(4-fluorophenylmethyl)-4-(S-methylsulfonimidoyl)-2H-indazol-6-yl)acetamide] | – | – | 5.30 to 6.70
Cc1ccccc1CC(=O)Nc1cc([S@@](C)(=N)=O)c2cn(Cc3ccc(F)cc3)nc2c1 [Compound 139, (S)—N-(2-(4-fluorophenylmethyl)-4-(S-methylsulfonimidoyl)-2H-indazol-6-yl)-2-(o-phenylmethyl)acetamide] | – | – | 5.30 to 6.70
Cc1ccccc1CC(=O)Nc1cc([S@](C)(=N)=O)c2cn(Cc3ccc(F)cc3)nc2c1 [Compound 139A] | – | – | 5.30 to 6.70
COc1ccccc1CC(=O)Nc1cc(S(C)(=N)=O)c2cn(Cc3ccc(F)cc3)nc2c1 (stereo not drawn) [Compound 140, N-(2-(4-fluorophenylmethyl)-4-(S-methylsulphonimidoyl)-2H-indazol-6-y)-2-(2-methoxyphenyl)acetamide] | – | – | 5.30 to 6.70
NS(=O)(=O)c1cc(NC(=O)Cc2ccccc2Cl)cc2c1cnn2CC1CCOCC1 [Compound 141A, 2-(2-chlorophenyl)-N-(4-sulfamoyl-1-((tetrahydro-2H-pyran-4-yl)methyl)-1H-indazol-6-yl)acetamide] | – | – | 6.70 to 7.30
N-(2-(4-chlorobenzyl)-4-sulfamoyl-2H-indazol-6-yl)-2-(2-chlorophenyl)acetamide [Compound 89] | – | – | ≥ 8.00
N-(4-(N,N-bis(4-methoxybenzyl)sulfamoyl)-1-(4-(trifluoromethyl)benzyl)-1H-indazol-6-yl)-2-(2-chlorophenyl)acetamide [Compound 90A] | – | – | ≥ 8.00
N-(4-(N,N-bis(4-methoxybenzyl)sulfamoyl)-1-(4-fluorobenzyl)-1H-indazol-6-yl)-2-(2-chlorophenyl)acetamide [Compound 88A] | – | – | ≥ 8.00
